Measurements published in patent US11850334B2, “Immobilised biological entities” (CARMEDA AB, priority 2018, dated 2023).

System: FXa
Test: Anti-FXa activity of heparin fragments in solution, compared with International Standard (Evaluation Method C)
Assay type: biochemical
Conditions: not immobilized, calculated towards Low Molecular Heparin 2nd International Standard
Procedure: Evaluation Method C: Anti-FXa Activity Determination of Heparin Fragments in Solution, Compared with International Standard
The anticoagulant activity of the heparin fragments are determined in an anti-FXa assay. This method measures anti-FXa activity of heparin essentially according to USP<208> Anti-FXa and Anti-FIIa assays for unfractionated and low molecular weight heparins. The method is based on heparin's ability to accelerate antithrombin inhibition of FXa in vitro, where the residual FXa activity is detected using a chromogenic FXa substrate (CS 11(65)). The results expressed as IU/mg (international unit/mg) are calculated using the parallel-line model, towards the Low Molecular Heparin 2nd International Standard.
Anti-FXa activity was determined by Evaluation Method Con example 1.2 (alpha), 1.1 (beta), 2.1, 2.2 and 2.3 (see Table 3). All heparin fragments tested were in solution and not immobilized to a surface.

Compound | anti-FXa activity [IU/mg]
5-Aminopentyl 2-deoxy-2-sulfamido-6-O-sulfo-α-D-glucopyranosyl-(1→4)-β-D-glucopyranosyluronic acid-(1→4)-2-deoxy-2-sulfamido-3,6-di-O-sulfo-α-D-glucopyranosyl-(1→4)-2-O-sulfo-α-L-idopyranosyluronic acid-(1→4)-2-deoxy-2-sulfamido-6-O-sulfo-β-D-glucopyranoside [Example 1.1] | 385
NCCCCCO[C@H]1O[C@H](COS(=O)(=O)O)[C@@H](O[C@@H]2O[C@@H](C(=O)O)[C@@H](O[C@H]3O[C@H](COS(=O)(=O)O)[C@@H](O[C@@H]4O[C@H](C(=O)O)[C@@H](O[C@H]5O[C@H](COS(=O)(=O)O)[C@@H](O)[C@H](O)[C@H]5NS(=O)(=O)O)[C@H](O)[C@H]4O)[C@H](OS(=O)(=O)O)[C@H]3NS(=O)(=O)O)[C@H](O)[C@H]2OS(=O)(=O)O)[C@H](O)[C@H]1NS(=O)(=O)O [Example 1.2, 5-Aminopentyl 2-deoxy-2-sulfamido-6-O-sulfo-α-D-glucopyranosyl-(1→4)-β-D-glucopyranosyluronic acid-(1→4)-2-deoxy-2-sulfamido-3,6-di-O-sulfo-α-D-glucopyranosyl-(1→4)-2-O-sulfo-α-L-idopyranosyluronic acid-(1→4)-2-deoxy-2-sulfamido-6-O-sulfo-α-D-glucopyranoside] | 330
